Source: paper PMC5051080, “Safety, pharmacokinetics, and antitumor properties of anlotinib, an oral multi-target tyrosine kinase inhibitor, in patients with advanced refractory solid tumors” (Journal of Hematology & Oncology, 2016)
Where two headings read alike, the source gives them in different places.

Key:
[1] = Multiple-dose pharmacokinetics in cancer patients; format: in vivo, human
Protocol: In single-dose studies, anlotinib were administered orally at dose of 5, 10, 12, or 16 mg anlotinib/person. Serial blood samples were collected in heparinized tubes before and at 0.5, 1, 2, 4, 8, 11, 24, 48, 72, 96, 120, 144, 168, 192, 216, and 240 h (samples of 144–240 h were collected only in 12 or 16 mg/person dose group) after dosing. In the 10 mg/person dose group, urine was sampled before and 0–2, 2–6, 6–11, 11–24, 24–34, 34–48, 48–58, 58–72, 72–96, and 96–120 h after dosing. In multiple-dose studies, there were two ways of multiple-dose administration. Initially, patients in 5 and 10 mg/person/day groups were treated consecutively for 28 days. […] Concentrations of anlotinib were measured by liquid chromatography/mass spectrometry.
The maximum concentration (C max) and the time taken to achieve C max (T max) were obtained directly from the data with no interpolation. The area under concentration-time curve up to the last measured time point (AUC0 − t) was calculated by the trapezoidal rule. The elimination half-life (t 1/2) was calculated using the relationship 0.693/k. […] The renal clearance (CLR) was calculated by dividing the cumulative amount excreted into urine (Cum.A e − U) by plasma AUC0 − t. Accumulation ratio (R ac) was used to indicate the extent of accumulation during multiple doses of anlotinib capsules and calculated using the following equation: Rac=C24hDay15/C24hDay1, […]

[2] = system: VEGFR3; design: method as in details pending publication elsewhere; conditions: recombinant enzymes; ref details pending publication elsewhere; cited from earlier work
[3] = system: human cytochrome P450 3A4; conditions: in vitro; read-out: half maximum inhibitory concentration; cited from earlier work
[4] = system: VEGFR2/KDR; design: method as in details pending publication elsewhere; conditions: recombinant enzymes; ref details pending publication elsewhere; cited from earlier work
[5] = system: FGFR1-4; conditions: especially FGFR2; to a greater extent than sorafenib; preclinical results; cited from earlier work
[6] = system: human tumor xenograft models (SW-620, SK-OV-3, SMMC-7721, Caki-1, U87MG, Calu-3); conditions: colon, ovarian, liver, renal, glioma, non-small cell lung; during dosing period; cited from earlier work
[7] = dogs; cited from earlier work
[8] = system: tumor cells carrying mutations in PDGFR α, c-Kit, Met, and EGFR; conditions: preclinical background; cited from earlier work
[9] = system: advanced refractory solid tumors; assay: Tumor response by RECIST 1.1; format: in vivo, human
Protocol: Efficacies were evaluated according to NCI-proposed Response Evaluation Criteria In Solid Tumors (RECIST 1.1). The tumor will be assessed every two cycles including tumor-related symptoms and physical and imaging examination (CT or MRI) of superficial lesions. Physical and imaging examination of tumor lesions should be done at least four weeks after the first effect evaluation in patients with complete remission (CR), partial remission (PR), and stable disease (SD) to confirm efficacy.

[10] = system: human cytochrome P450 2C9; conditions: in vitro; read-out: half maximum inhibitory concentration; cited from earlier work
[11] = system: patients with advanced refractory solid tumors; assay: Phase I safety and tolerability (DLT, MTD, adverse events NCI-CTCAE 4.0); format: in vivo; conditions: for dose-limiting toxicity: in vivo
Text: Those patients received escalating doses of anlotinib daily for (1) four consecutive weeks (4/0) or (2) 2-week on/1-week off (2/1). […] If two DLTs were observed during the first cycle in a cohort, dose-escalation was halted and dose continued at a lower level until the MTD (the highest dose level for which the incidence of first-cycle DLT was <33 %) was identified. In the absence of two or more DLTs in a cohort, the dose was escalated in a modified Fibonacci scheme. Treatment cycles were repeated until disease progression, unacceptable toxicity, or withdrawal of consent.
Adverse events are graded into 0–5 according to the National Cancer Institute Common Terminology Criteria for Adverse Events (NCI-CTCAE 4.0). During treatment, blood pressure will be monitored every day. Patients with unresolved adverse reactions at the end of the test needed to be treated and followed until the reactions returned to the grade 1 degree or less, or stable.

[12] = rats, cited from earlier work
[13] = Single-dose pharmacokinetics in cancer patients; format: in vivo, human; conditions: for AUC(0-t): read-out: AUC0–120h
Protocol: In single-dose studies, anlotinib were administered orally at dose of 5, 10, 12, or 16 mg anlotinib/person. Serial blood samples were collected in heparinized tubes before and at 0.5, 1, 2, 4, 8, 11, 24, 48, 72, 96, 120, 144, 168, 192, 216, and 240 h (samples of 144–240 h were collected only in 12 or 16 mg/person dose group) after dosing. In the 10 mg/person dose group, urine was sampled before and 0–2, 2–6, 6–11, 11–24, 24–34, 34–48, 48–58, 58–72, 72–96, and 96–120 h after dosing. In multiple-dose studies, there were two ways of multiple-dose administration. Initially, patients in 5 and 10 mg/person/day groups were treated consecutively for 28 days. Blood samples were collected 24 h after dosing on days 1, 2, 4, 7, 10, 13, 15, 16, 18, 21, 24, 28, and 29. Later, the other volunteers were given multiple doses of anlotinib at 10, 12, or 16 mg anlotinib/person/day in the 2/1 schedule for two cycles. Blood samples were collected 24 h after dosing on days 1, 4, 7, 10, 13, 15, 18, 22, 29, and 36. The collected blood samples were centrifuged to prepare plasma fractions; the urine samples were weighed after collection. All samples were stored at −70 °C for subsequent analysis. Concentrations of anlotinib were measured by liquid chromatography/mass spectrometry.
The maximum concentration (C max) and the time taken to achieve C max (T max) were obtained directly from the data with no interpolation. The area under concentration-time curve up to the last measured time point (AUC0 − t) was calculated by the trapezoidal rule. The elimination half-life (t 1/2) was calculated using the relationship 0.693/k. The k was estimated by linear regression analysis of the terminal portion of the log concentration-time data. The renal clearance (CLR) was calculated by dividing the cumulative amount excreted into urine (Cum.A e − U) by plasma AUC0 − t. Accumulation ratio (R ac) was used to indicate the extent of accumulation during multiple doses of anlotinib capsules and calculated using the following equation: Rac=C24hDay15/C24hDay1,
where C 24 h(Day1) and C 24 h(Day15) are plasma concentrations of anlotinib at 24 h after dosing on day 1 and day 15, respectively. Plasma pharmacokinetic (PK) parameters were determined using noncompartmental method with a Kinetica software package (version 5.0; Thermo Scientific, Philadelphia, PA).

[14] = tumor-bearing mice; cited from earlier work
[15] = 12 mg/day 2/1 schedule, 20 assessable patients
[16] = human, plasma, single oral dose 5 mg/person (n = 1)
[17] = human, plasma, single oral dose 10 mg/person (n = 4)
[18] = human, plasma, single oral dose 12 mg/person (n = 11)
[19] = human, plasma, single oral dose 16 mg/person (n = 4)
[20] = human, plasma, single oral dose 5-16 mg/person, range

Compound: COc1cc2c(Oc3ccc4[nH]c(C)cc4c3F)ccnc2cc1OCC1(N)CC1 [anlotinib]
- day at which maximum plasma concentration was reached ([1]; 2/1 schedule, 2-week dosing): 14 days
- accumulation ratio R ac (C24h Day15/C24h Day1) ([1]; multiple oral doses, mean): 12 ± 7
- potency relative to sorafenib [2]: ~500 times
- potency relative to sunitinib [2]: approximately 20 times
- IC50 [3]: 110 nM
- potency relative to sorafenib [4]: ~500 times
- potency relative to sunitinib [4]: approximately 20 times
- inactivation of FGFR1-4 [5]: significantly inactivated
- activity against human tumor xenograft models [6]: broad activity
- oral bioavailability [7]: 47–74%
- antitumor activity against tumor cells carrying mutations [8]: showed antitumor activity
- patients with tumor burden shrinkage ([9]; 12 mg once daily): More than 60%
- partial response (PR) [9, 15]: 15%
- partial response (PR), patients [9, 15]: 3
- patients with tumor burden shrinkage among SD [9, 15]: 12
- progressive disease (PD) [9, 15]: 15%
- progressive disease (PD), patients [9, 15]: 3
- stable disease (SD), patients [9, 15]: 14
- IC50 [10]: 250 nM
- dose-limiting toxicity ([11]; human): grade 3 hypertension and grade 3 fatigue
- dose-limiting toxicity ([11]; human, 4 weeks): grade 3 hypertension
- dose-limiting toxicity [11]: no DLT
- maximum tolerated dose ([11]; once daily, 2/1 schedule): 12 mg
- oral bioavailability ([12]; oral): 23–45%
- exposure level in lung, kidneys, liver, heart compared with plasma [12]: significant higher
- exposure level in the brain compared with plasma level [12]: comparable
- half-life ([13]; human, plasma, oral, mean over doses, dose-independent): 4 ± 0.708 days
- AUC(0-inf) [13, 16]: 687 ng·h/mL
- Cmax [13, 16]: 5.8 ng/mL
- Tmax [13, 16]: 11 h
- half-life [13, 16]: 4.25 days
- AUC(0-t) [13, 16]: 411 ng·h/mL
- AUC(0-inf) [13, 17]: 562 ± 328 ng·h/mL
- Cmax [13, 17]: 5.8 ± 2.8 ng/mL
- Tmax [13, 17]: 6 ± 4.4 h
- half-life [13, 17]: 3.96 ± 0.917 days
- AUC(0-t) [13, 17]: 318 ± 133 ng·h/mL
- AUC(0-inf) [13, 18]: 1070 ± 263 ng·h/mL
- Cmax [13, 18]: 10.5 ± 2.9 ng/mL
- Tmax [13, 18]: 7.3 ± 3.3 h
- half-life [13, 18]: 4.83 ± 1.96 days
- AUC(0-t) [13, 18]: 617 ± 194 ng·h/mL
- AUC(0-inf) [13, 19]: 1580 ± 470 ng·h/mL
- Cmax [13, 19]: 15.8 ± 3.2 ng/mL
- Tmax [13, 19]: 11 ± 8.9 h
- half-life [13, 19]: 4.08 ± 0.625 days
- AUC(0-t) [13, 19]: 894 ± 305 ng·h/mL
- MRT [13, 20]: 124 to 167 h
- Tmax [13, 20]: 4 to 11 h
- half-life [13, 20]: 2.67 to 5.67 days
- CL renal ([13]; human, urine and plasma, single oral dose, urine sampled in 10 mg/person group, read-out: renal clearance CLR (converted)): 4 mL/h/kg
- dose proportionality of AUC0–120h, Conclusion ([13]; single oral dose): Inconclusive
- dose proportionality of AUC0–∞, Conclusion ([13]; single oral dose): Inconclusive
- dose proportionality of C max, Conclusion ([13]; single oral dose): Inconclusive
- fraction of the dose excreted into urine (f e − U) ([13]; single oral dose, urine sampled in 10 mg/person group): ~ 0.9%
- concentration in tumor tissue relative to plasma [14]: 2.4–2.6 times
